Test results from the NIST ThermoML archive (doi:10.1016/j.jct.2013.10.031).

Test: wn = mass fraction of the nth substance listed
Conditions: Gas, Burnett expansion method

FCC(F)(F)F [1,1,1,2-tetrafluoroethane] + CCC
Conditions | mass density [kg/m3]
299.04 K, 290.2 kPa, w2 = 0.55 | 7.2808
299.04 K, 330.1 kPa, w2 = 0.6 | 7.994
299.04 K, 380.6 kPa, w2 = 0.55 | 9.6815
299.04 K, 432.1 kPa, w2 = 0.6 | 10.6297
299.04 K, 496.4 kPa, w2 = 0.55 | 12.8736
299.04 K, 561.9 kPa, w2 = 0.6 | 14.1346
299.04 K, 724.4 kPa, w2 = 0.6 | 18.7949
299.04 K, 824.2 kPa, w2 = 0.55 | 22.7626
299.05 K, 180.8 kPa, w2 = 0.65 | 4.1345
299.05 K, 238.4 kPa, w2 = 0.65 | 5.4977
299.05 K, 313.5 kPa, w2 = 0.65 | 7.3105
299.05 K, 410.5 kPa, w2 = 0.65 | 9.7208
299.05 K, 534.3 kPa, w2 = 0.65 | 12.9262
299.05 K, 642.9 kPa, w2 = 0.55 | 17.1183
299.06 K, 689.6 kPa, w2 = 0.65 | 17.1876
299.06 K, 880.4 kPa, w2 = 0.65 | 22.8543
299.06 K, 922.6 kPa, w2 = 0.6 | 24.9906
299.92 K, 198.1 kPa, w2 = 0.5 | 5.06523
299.92 K, 261.1 kPa, w2 = 0.5 | 6.74709
299.92 K, 343.5 kPa, w2 = 0.5 | 8.9873
299.92 K, 449.9 kPa, w2 = 0.5 | 11.9714
299.92 K, 585.2 kPa, w2 = 0.5 | 15.9465
299.92 K, 754.7 kPa, w2 = 0.5 | 21.2412
299.93 K, 961.3 kPa, w2 = 0.5 | 28.294
300.04 K, 162.1 kPa, w2 = 0.4 | 4.47962
300.04 K, 213.8 kPa, w2 = 0.4 | 5.96699
300.04 K, 369.1 kPa, w2 = 0.4 | 10.5874
300.04 K, 481.6 kPa, w2 = 0.4 | 14.1031
300.04 K, 624.3 kPa, w2 = 0.4 | 18.786
300.04 K, 801.2 kPa, w2 = 0.4 | 25.0237
300.04 K, 1014.7 kPa, w2 = 0.4 | 33.3323
300.05 K, 281.4 kPa, w2 = 0.4 | 7.94819
300.28 K, 1155.2 kPa, w2 = 0.45 | 37.6831
300.3 K, 250.1 kPa, w2 = 0.45 | 6.74559
300.3 K, 328.7 kPa, w2 = 0.45 | 8.98533
300.3 K, 430.2 kPa, w2 = 0.45 | 11.9689
300.3 K, 560 kPa, w2 = 0.45 | 15.9432
300.3 K, 722.6 kPa, w2 = 0.45 | 21.2369
300.3 K, 921.7 kPa, w2 = 0.45 | 28.2885
303 K, 206 kPa, w2 = 0.65 | 4.6675
303 K, 271.6 kPa, w2 = 0.65 | 6.2064
303 K, 356.7 kPa, w2 = 0.65 | 8.2528
303 K, 466.3 kPa, w2 = 0.65 | 10.974
303 K, 605.7 kPa, w2 = 0.65 | 14.5921
303.01 K, 228 kPa, w2 = 0.55 | 5.5856
303.01 K, 513.7 kPa, w2 = 0.55 | 13.1325
303.01 K, 665.4 kPa, w2 = 0.55 | 17.4628
303.01 K, 780 kPa, w2 = 0.65 | 19.4028
303.01 K, 853.2 kPa, w2 = 0.55 | 23.2201
303.02 K, 300.2 kPa, w2 = 0.55 | 7.4272
303.02 K, 393.7 kPa, w2 = 0.55 | 9.876
303.02 K, 1078.8 kPa, w2 = 0.55 | 30.8763
303.03 K, 991 kPa, w2 = 0.65 | 25.7988
303.1 K, 231.6 kPa, w2 = 0.6 | 5.4683
303.1 K, 304.9 kPa, w2 = 0.6 | 7.2713
303.1 K, 399.8 kPa, w2 = 0.6 | 9.6687
303.1 K, 521.7 kPa, w2 = 0.6 | 12.8566
303.1 K, 675.5 kPa, w2 = 0.6 | 17.0956
303.1 K, 865.6 kPa, w2 = 0.6 | 22.7325
303.11 K, 1092.1 kPa, w2 = 0.6 | 30.2268
304.1 K, 860.4 kPa, w2 = 0.4 | 26.6525
304.1 K, 1087.7 kPa, w2 = 0.4 | 35.5024
304.11 K, 174.8 kPa, w2 = 0.4 | 4.77108
304.11 K, 397.4 kPa, w2 = 0.4 | 11.2764
304.11 K, 518.4 kPa, w2 = 0.4 | 15.0206
304.11 K, 671.1 kPa, w2 = 0.4 | 20.0084
304.12 K, 230.5 kPa, w2 = 0.4 | 6.35521
304.12 K, 303.2 kPa, w2 = 0.4 | 8.46542
304.18 K, 860.4 kPa, w2 = 0.5 | 24.4745
304.19 K, 302.4 kPa, w2 = 0.5 | 7.77376
304.19 K, 396.5 kPa, w2 = 0.5 | 10.3551
304.19 K, 517.4 kPa, w2 = 0.5 | 13.7935
304.19 K, 670.5 kPa, w2 = 0.5 | 18.3734
304.19 K, 1088.7 kPa, w2 = 0.5 | 32.6005
304.23 K, 1142.8 kPa, w2 = 0.45 | 36.7316
304.24 K, 907.2 kPa, w2 = 0.45 | 27.5748
304.25 K, 248 kPa, w2 = 0.45 | 6.57513
